In paper PMC12692346, “Imidazolinium-Based NHC–Metal Complexes Overcome Both Cancer Multidrug Resistance and Cisplatin Resistance In Vitro” (International Journal of Molecular Sciences, 2025):

Assays:
[1] = tested on: Mes-Sa mCherry uterine sarcoma cell line; experiment: Triple coculture fluorescence cytotoxicity test, parental line; format: cell-based, human; settings: 144 h incubation, fluorescence readout
Description: (§1) All synthesized complexes and representatives of the respective ligands (Lb, Lc, SIPr, IPr) were tested in a triple coculture of uterine sarcoma cell lines, consisting of the parental Mes-Sa cell line, and its MDR derivatives Mes-Sa/B1 and Mes-Sa/Dx5, transfected or selected in doxorubicin to overexpress P-glycoprotein, respectively (Figure 2a–c, Table S2). Each cell line expresses a distinct fluorescent protein (mCherry, mOrange, and eGFP, respectively), and the total fluorescence of a well is proportional to the cell number, allowing the assessment of compound cytotoxicity.
(§2) In a triple coculture system, cell lines expressing different fluorescent proteins were seeded in the same well. Cell lines (Mes-Sa mCherry, Mes-Sa/B1 mOrange, Mes-Sa/Dx5 eGFP [25]) were admixed and seeded on 384-well plates at a density of 3 × 800 cells/well (1:1:1 ratio), resulting in an overall total of 2400 cells. The next day, serially diluted compounds were added to the wells. Liquid handling was managed by a Hamilton StarLet pipetting robot. After 144 h of incubation, the fluorescence of mCherry (ex/em: 585/610 nm), mOrange (ex/em: 545/567 nm) and eGFP (ex/em: 485/510 nm) was recorded with an EnSpire plate reader (PerkinElmer, Waltham, MA, USA).
(§3) pIC50 values derived from both co- and monoculture systems were determined by a custom program written in C# [25], then average and standard deviations were calculated and transformed to IC50 values. Every compound was tested in at least 3 independent experiments in triplicates.

Mes-Sa/Dx5 eGFP = experiment: Triple coculture fluorescence cytotoxicity test, doxorubicin-selected MDR line; format: cell-based, human; settings: for RR_Dx5 resistance ratio (IC50_MDR line / IC50_parental line) of Mes-Sa/Dx5: Mes-Sa/Dx5 vs Mes-Sa; for IC50: triple coculture, 144 h incubation, fluorescence readout
Description: as §1, §2, §3

Mes-Sa/B1 mOrange = experiment: Triple coculture fluorescence cytotoxicity test, ABCB1-transfected MDR line; format: cell-based, human; settings: for RR_B1 resistance ratio (IC50_MDR line / IC50_parental line) of Mes-Sa/B1: Mes-Sa/B1 vs Mes-Sa; for IC50: triple coculture, 144 h incubation, fluorescence readout
Description: as §1, §2, §3

[2] = tested on: CST-2/3 cisplatin-resistant cells; experiment: Monoculture PrestoBlue cytotoxicity test, cisplatin-resistant CST-2/3; format: cell-based, mouse
Description: (§4) CST, a drug-naïve murine breast cancer cell line, and cisplatin-resistant cells CST-2/3 were seeded in monoculture into 384-well plates (Corning Inc., Corning, NY, USA) at a density of 2500 cells per well using automated liquid-handling. The cells were preincubated for 24 h to ensure adherence, followed by the addition of serially diluted compounds to a final well volume of 60 µL. Following 120 h of continuous drug exposure, cell viability was quantified using the PrestoBlue viability assay (Thermo Fisher Scientific, Waltham, MA, USA) after 1 h incubation at 555 nm excitation and 585 nm emission wavelengths.
as §3

[3] = tested on: CST murine breast cancer cell line; experiment: Monoculture PrestoBlue cytotoxicity test, CST; format: cell-based, mouse; settings: 120 h exposure
Description: as §4, §3

Compound | IC50 [1] | RR_Dx5 resistance ratio (IC50_MDR line / IC50_parental line) of Mes-Sa/Dx5 (Mes-Sa/Dx5 eGFP) | IC50 (Mes-Sa/Dx5 eGFP) | RR_B1 resistance ratio (IC50_MDR line / IC50_parental line) of Mes-Sa/B1 (Mes-Sa/B1 mOrange) | IC50 (Mes-Sa/B1 mOrange) | IC50 ([1]; Homo sapiens, MES-SA) | IC50 (Mes-Sa/Dx5 eGFP; Homo sapiens, MES-SA/Dx5) | IC50 (Mes-Sa/B1 mOrange; Homo sapiens, MES-SA) | RR_CST resistance ratio (IC50_CST-2/3 / IC50_CST) ([2]; CST-2/3 vs CST) | IC50 ([2]; monoculture, 120 h exposure, PrestoBlue) | IC50 [3]
CC(C)c1cccc(C(C)C)c1N1[C](=[Au][Cl])N([C@H](C)c2ccccc2)C[C@@H]1C(C)(C)C [Compound 3c] | 18.6 µM | 2.1 | 39.6 µM | 2.1 | 39.8 µM | – | – | – | – | – | –
CC(C)c1cccc(C(C)C)c1N1[C](=[Au][Cl])N([C@H](C)c2ccc3ccccc3c2)C[C@@H]1C(C)(C)C [Compound 3e] | 7.47 µM | 2.3 | 16.9 µM | 2.6 | 19.1 µM | – | – | – | – | – | –
CC(C)c1cccc(C(C)C)c1N1[C](=[Au][Cl])N([C@@H](C)C(C)(C)C)C[C@@H]1C(C)(C)C [Compound 3f] | 11.4 µM | 1.2 | 13.8 µM | 1.6 | 18.6 µM | – | – | – | – | – | –
C=C[CH2][Pd]([Cl])=[C]1N([C@@H](C)c2ccccc2)C[C@H](C(C)(C)C)N1c1c(C(C)C)cccc1C(C)C [Compound 4b] | 5.19 µM | 2.4 | 12.2 µM | 1.8 | 9.33 µM | – | – | – | – | – | –
CC(C)c1cccc(C(C)C)c1-n1ccn(-c2c(C(C)C)cccc2C(C)C)[c]1=[Cu][Cl] [Compound 5b] | 1.01 µM | 1.8 | 1.83 µM | 2.0 | 2 µM | – | – | – | – | – | –
CC(C)c1cccc(C(C)C)c1-n1ccn(-c2c(C(C)C)cccc2C(C)C)[c]1=[Ag][Cl] [Compound 6b] | 1.82 µM | 2.1 | 3.89 µM | 2.4 | 4.37 µM | – | – | – | – | – | –
CC(C)c1cccc(C(C)C)c1-n1ccn(-c2c(C(C)C)cccc2C(C)C)[c]1=[Au][Cl] [Compound 7b] | 18.6 µM | 3.2 | 60.3 µM | 1.9 | 36.3 µM | – | – | – | – | – | –
CC(C)c1cccc(C(C)C)c1-n1ccn(-c2c(C(C)C)cccc2C(C)C)[c]1=[Cu+]=[c]1n(-c2c(C(C)C)cccc2C(C)C)ccn1-c1c(C(C)C)cccc1C(C)C.F[B-](F)(F)F [Compound 9b] | 0.058 µM | 37.3 | 2.15 µM | 38.0 | 2.19 µM | – | – | – | – | – | –
COc1cc([C@@H]2c3cc4c(cc3[C@@H](O[C@@H]3O[C@@H]5CO[C@@H](C)O[C@H]5[C@H](O)[C@H]3O)[C@H]3COC(=O)[C@H]23)OCO4)cc(OC)c1O [Etoposide, reference compound] | – | 15.4 | – | 9.0 | – | 0.12 µM | 1.9 µM | 1.11 µM | – | – | –
CC(C)c1cccc(C(C)C)c1-n1cc[n+](-c2c(C(C)C)cccc2C(C)C)c1 [IPr, reference compound] | – | 23.4 | – | 15.5 | – | 2.19 µM | 51.3 µM | 33.9 µM | – | – | –
CC(C)c1cccc(C(C)C)c1N1C=[N+]([C@H](C)c2ccccc2)C[C@@H]1C(C)(C)C [Lc] | – | 30.4 | – | 21.4 | – | 2.4 µM | 73 µM | 51.3 µM | – | – | –
O=C1[O][Pt]2([NH][C@@H]3CCCC[C@H]3[NH]2)[O]C1=O [Oxaliplatin, reference compound] | – | – | – | – | – | – | – | – | 9.3 | 3.84 µM | 0.41 µM
